Source: patent US9120749B2, “Quinoline derivatives and MELK inhibitors containing the same” (ONCOTHERAPY SCIENCE, INC., priority 2010, dated 2015)
Counter-ions that a name gives are not always drawn. Like-named read-outs stand apart in the source and are kept apart here.

Key:
[1] = tested on: DU4475 cells; assay: Cell-based assay: anti-proliferative activity, Cell Counting Kit-8, 72 hours (DU4475)
[2] = biological target: MELK (Homo sapiens, UniProt Q14680); assay: Kinase assay: MELK activity, phosphorylation of FITC-labeled histone H3 peptide measured by IMAP fluorescence polarization; assay type: biochemical; details: read-out: IC50 (μM) (kinase assay)
Sequence of MELK (Q14680 whole entry, looked up): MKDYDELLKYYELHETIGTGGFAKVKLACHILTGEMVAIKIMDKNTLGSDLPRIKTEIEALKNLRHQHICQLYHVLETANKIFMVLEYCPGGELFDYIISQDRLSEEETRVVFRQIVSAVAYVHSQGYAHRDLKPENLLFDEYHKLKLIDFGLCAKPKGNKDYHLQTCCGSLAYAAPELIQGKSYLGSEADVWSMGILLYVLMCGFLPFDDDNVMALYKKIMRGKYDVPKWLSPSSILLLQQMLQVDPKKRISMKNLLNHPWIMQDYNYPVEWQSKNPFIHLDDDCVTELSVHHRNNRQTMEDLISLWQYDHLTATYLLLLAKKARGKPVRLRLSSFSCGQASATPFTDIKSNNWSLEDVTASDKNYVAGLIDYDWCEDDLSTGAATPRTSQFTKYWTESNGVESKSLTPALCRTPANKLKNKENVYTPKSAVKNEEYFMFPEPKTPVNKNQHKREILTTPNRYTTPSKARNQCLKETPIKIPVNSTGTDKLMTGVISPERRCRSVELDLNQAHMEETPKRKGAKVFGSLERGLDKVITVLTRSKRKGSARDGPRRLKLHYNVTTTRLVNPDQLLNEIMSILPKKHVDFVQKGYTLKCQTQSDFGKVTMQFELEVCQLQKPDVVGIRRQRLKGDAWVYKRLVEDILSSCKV
In short: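 Polarization of fluorescence served as the signal for MELK turnover of FITC-conjugated histone H3 peptide. Binding solution quenched each reaction, and plates stood 0.5 hour at room temperature before reading.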

[3] = tested on: A549 cells; assay: Cell-based assay: anti-proliferative activity, Cell Counting Kit-8, 72 hours (A549); details: 72 hours
In short: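 Cell Counting Kit-8 read-out of A549 growth after 72 hours of inhibitor exposure, cells plated in 96-well format. Values reported as IC50.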

[4] = tested on: HT-1197 cells; assay: Cell-based assay: anti-proliferative activity, Cell Counting Kit-8, 72 hours (HT-1197, negative control without MELK expression); details: HT1197 cells (negative control), 72 hours
In short: (§1)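 Target-specific cytotoxicity: seeded cells treated with MELK inhibitor candidates for 72 h, proliferation quantified via CCK-8, IC50 fitted.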

[5] = tested on: T47D cells; assay: Cell-based assay: anti-proliferative activity, Cell Counting Kit-8, 72 hours (T47D)
In short: as §1

Structure (SMILES) | IC50 ([1]; Homo sapiens, DU-4475, 72 h) | IC50 [2] | IC50 ([3]; Homo sapiens, A549, 72 h) | IC50 ([4]; Homo sapiens, HT1197, 72 h) | IC50 ([5]; Homo sapiens, T47D, 72 h) | also measured
O=C(c1cnc2ccc(-c3cc(F)c(O)c(Cl)c3)cc2c1N[C@H]1CC[C@H](CN2CC[C@@H](F)C2)CC1)C1CC1 [Example 570, (6-(3-chloro-5-fluoro-4-hydroxyphenyl)-4-((trans-4-(((R)-3-fluoropyrrolidin-1-yl)methyl)cyclohexyl)amino)quinolin-3-yl)(cyclopropyl)methanone] | 0.089 µM | 0.016 µM | 0.13 µM | 0.16 µM | 0.14 µM | –
NC1CCN(c2ncc(Nc3c(C(=O)C4CC4)cnc4ccc(-c5cc(F)c(O)c(Cl)c5)cc34)cn2)CC1 [Example 567, (4-(2-(4-aminopiperidin-1-yl)pyrimidin-5-ylamino)-6-(3-chloro-5-fluoro-4-hydroxyphenyl)quinolin-3-yl)(cyclopropyl)methanone] | 0.18 µM | 0.0083 µM | 0.34 µM | 1.9 µM | 0.076 µM | –
C=CCN(CC=C)C1(C)CCC(Nc2c(C(=O)C3CC3)cnc3ccc(-c4cc(Cl)c(O)c(Cl)c4)cc23)CC1 (centres unmarked) [Example 583, Cyclopropyl{4-[4-(diallylamino)-4-methylcyclohexylamino]-6-(3,5-dichloro-4-hydroxyphenyl)quinolin-3-yl}methanone] | 2.3 µM | 0.089 µM | 3.1 µM | 10 µM | 2.6 µM | –
COc1cc(-c2ccc3ncc(C(=O)C(C)C)c(N[C@H]4CC[C@H](CN(C)C)CC4)c3c2)cc(Cl)c1O [Example 606] | 0.34 µM | 0.0063 µM | 0.65 µM | 1.1 µM | 0.65 µM | –
COc1cc(-c2ccc3ncc(C(=O)C4CC4)c(N[C@H]4CC[C@H](CN5CC[C@@H](F)C5)CC4)c3c2)cc(Cl)c1O [Example 569] | 0.41 µM | 0.011 µM | 0.4 µM | 1.8 µM | 0.62 µM | –
CC(=O)c1cnc2ccc(-c3cc(F)c(O)c(Cl)c3)cc2c1Nc1cnc(N2CCNCC2)nc1 [Example 594, 1-(6-(3-chloro-5-fluoro-4-hydroxyphenyl)-4-(2-(piperazin-1-yl)pyrimidin-5-ylamino)quinolin-3-yl)ethanone] | 0.048 µM | 0.0048 µM | 0.063 µM | 0.66 µM | 0.025 µM | –
COc1cc(-c2ccc3ncc(C(=O)C4CC4)c(Nc4cnc(N5CCC(N)CC5)nc4)c3c2)cc(Cl)c1O [Example 553, (4-(2-(4-aminopiperidin-1-yl)pyrimidin-5-ylamino)-6-(3-chloro-4-hydroxy-5-methoxyphenyl)quinolin-3-yl)(cyclopropyl)methanone] | 0.95 µM | 0.0056 µM | 0.39 µM | 2.1 µM | 0.12 µM | –
CN(C)C[C@H]1CC[C@@H](Nc2c(C(=O)C3CC3)cnc3ccc(-c4cc(F)c(O)c(Cl)c4)cc23)CC1 [Example 514, (6-(3-chloro-5-fluoro-4-hydroxyphenyl)-4-((1s,4s)-4-((dimethylamino)methyl)cyclohexylamino)quinolin-3-yl)(cyclopropyl)methanone] | 0.21 µM | 0.0028 µM | 0.26 µM | 0.77 µM | 0.44 µM | –
COc1cc(-c2ccc3ncc(C(C)=O)c(Nc4ccc(C(N)=O)cc4)c3c2)cc(Cl)c1O [Example 544, 4-(3-acetyl-6-(3-chloro-4-hydroxy-5-methoxyphenyl)quinolin-4-ylamino)benzamide] | 0.2 µM | 0.018 µM | 0.47 µM | 2.2 µM | 0.17 µM | –
NC1CCN(c2ncc(Nc3c(C(=O)C4CC4)cnc4ccc(-c5cc(F)c(O)c(Cl)c5)cc34)cn2)C1 (centres unmarked) [Example 572, (4-(2-(3-aminopyrrolidin-1-yl)pyrimidin-5-ylamino)-6-(3-chloro-5-fluoro-4-hydroxyphenyl)quinolin-3-yl)(cyclopropyl)methanone] | 0.011 µM | 0.003 µM | 0.03 µM | 0.37 µM | 0.0076 µM | –
CN(C)Cc1cccc(Nc2c(C(=O)C3CC3)cnc3ccc(-c4cc(Cl)c(O)c(Cl)c4)cc23)c1 [Example 624, cyclopropyl(6-(3,5-dichloro-4-hydroxyphenyl)-4-(3-((dimethylamino)methyl)phenylamino)quinolin-3-yl)methanone] | 0.043 µM | 0.0016 µM | 0.089 µM | 3 µM | 0.55 µM | –
CCCC(=O)c1cnc2ccc(-c3cc(F)c(O)c(Cl)c3)cc2c1Nc1ccc(N2CCNCC2)nc1 [Example 623, 1-{6-(3-Chloro-5-fluoro-4-hydroxyphenyl)-4-[6-(piperazin-1-yl)pyridin-3-ylamino]quinolin-3-yl}butan-1-one] | 0.1 µM | 0.011 µM | 0.2 µM | 2 µM | 0.085 µM | –
CCCC(=O)c1cnc2ccc(-c3cnc(C#N)nc3)cc2c1Nc1ccc(CN(C)C)cc1 [Example 539, 5-(3-butyryl-4-(4-((dimethylamino)methyl)phenylamino)quinolin-6-yl)pyrimidine-2-carbonitrile] | 1.5 µM | 0.0038 µM | 1.6 µM | 1.6 µM | 0.37 µM | –
CN(C)Cc1ccc(Nc2c(C(=O)C3CC3)cnc3cc(F)c(-c4cc(F)c(O)c(Cl)c4)cc23)cc1 [Example 541, (6-(3-Chloro-5-fluoro-4-hydroxyphenyl)-4-(4-((dimethylamino)methyl)phenylamino)-7-fluoroquinolin-3-yl)(cyclopropyl)methanone] | 0.087 µM | 0.077 µM | 0.076 µM | 1.1 µM | 0.42 µM | –
COC1CCN(C[C@H]2CC[C@H](Nc3c(C(=O)C4CC4)cnc4ccc(-c5cc(Cl)c(O)c(Cl)c5)cc34)CC2)C1 (stereo partly drawn) [Example 598, cyclopropyl(6-(3,5-dichloro-4-hydroxyphenyl)-4-((trans-4-((3-methoxypyrrolidin-1-yl)methyl)cyclohexyl)amino)quinolin-3-yl)methanone] | 0.066 µM | 0.0023 µM | 0.13 µM | 1 µM | 0.18 µM | –
CCCC(=O)c1cnc2ccc(-c3cc(Cl)c(O)c(Cl)c3)cc2c1Nc1ccc(CN(C)C)cc1 [Example 531, 1-(6-(3,5-dichloro-4-hydroxyphenyl)-4-((4-((dimethylamino)methyl)phenyl)amino)quinolin-3-yl)butan-1-one dihydrochloride] | – | – | – | – | – | IC50 ([1]; dihydrochloride): 0.072 µM; IC50 ([2]; dihydrochloride): 0.0052 µM; IC50 ([3]; dihydrochloride): 0.18 µM; IC50 ([4]; dihydrochloride): 1.3 µM; IC50 ([5]; 72 hours, dihydrochloride): 0.11 µM
COc1cc(-c2ccc3ncc(C(=O)C4CC4)c(Nc4ccc(N5CCC(N)C5)nc4)c3c2)cc(Cl)c1O (centres unmarked) [Example 568, (4-(6-(3-aminopyrrolidin-1-yl)pyridin-3-ylamino)-6-(3-chloro-4-hydroxy-5-methoxyphenyl)quinolin-3-yl)(cyclopropyl)methanone] | 0.045 µM | 0.0027 µM | 0.082 µM | 0.62 µM | 0.057 µM | –
CN(C)Cc1ccc(Nc2c(C(=O)C3CC3)cnc3cc(F)c(-c4cc(Cl)c(O)c(Cl)c4)cc23)cc1 [Example 547, cyclopropyl(6-(3,5-dichloro-4-hydroxyphenyl)-4-(4-((dimethylamino)methyl)phenylamino)-7-fluoroquinolin-3-yl)methanone] | 0.14 µM | 0.02 µM | 0.13 µM | 1.9 µM | 0.41 µM | –
CC(C)C(=O)c1cnc2ccc(-c3cc(Cl)c(O)c(Cl)c3)cc2c1N[C@H]1CC[C@H](CN(C)C)CC1 [Example 608, 1-(6-(3,5-dichloro-4-hydroxyphenyl)-4-((1R,4R)-4-((dimethylamino)methyl)cyclohexylamino)quinolin-3-yl)-2-methylpropan-1-one] | 0.072 µM | 0.0022 µM | 0.25 µM | 0.46 µM | 0.15 µM | –
O=C(c1cnc2cc(F)c(-c3cc(Cl)c(O)c(Cl)c3)cc2c1Nc1ccc(N2CCNCC2)nc1)C1CC1 [Example 559, cyclopropyl(6-(3,5-dichloro-4-hydroxyphenyl)-7-fluoro-4-(6-(piperazin-1-yl)pyridin-3-ylamino)quinolin-3-yl)methanone] | 0.35 µM | 0.01 µM | 0.59 µM | 3.2 µM | 0.46 µM | –
NC1CCN(c2ncc(Nc3c(C(=O)C4CC4)cnc4ccc(-c5cc(F)c(O)c(Cl)c5)cc34)cn2)C1 (centres unmarked) [Example 573, (4-(2-(3-aminopyrrolidin-1-yl)pyrimidin-5-ylamino)-6-(3-chloro-5-fluoro-4-hydroxyphenyl)quinolin-3-yl)(cyclopropyl)methanone hydrochloride] | – | – | – | – | – | IC50 ([1]; hydrochloride): 0.013 µM; IC50 ([2]; hydrochloride): 0.004 µM; IC50 ([3]; hydrochloride): 0.032 µM; IC50 ([4]; hydrochloride): 0.57 µM; IC50 ([5]; 72 hours, hydrochloride): 0.0072 µM
NC1CCN(c2ncc(Nc3c(C(=O)C4CC4)cnc4ccc(-c5cc(Cl)c(O)c(Cl)c5)cc34)cn2)CC1 [Example 566, (4-(2-(4-aminopiperidin-1-yl)pyrimidin-5-ylamino)-6-(3,5-dichloro-4-hydroxyphenyl)quinolin-3-yl)(cyclopropyl)methanone] | 0.13 µM | 0.003 µM | 0.4 µM | 2.6 µM | 0.11 µM | –
